Source: patent publication US20260232767A1, “INTERLEUKIN-23 RECEPTOR ANTAGONIST PEPTIDES FOR USE IN THE TREATMENT OF PSORIASIS” (Janssen Pharmaceutica NV, priority 2023, published 2026)

System: subjects with moderate-to-severe plaque psoriasis
Assay: Hematology and chemistry laboratory values by CTCAE grade
Format: in vivo, human
Settings: through Week 56
Excerpt: The proportion of participants who discontinued study intervention due to one or more AEs was low (n=4). All events were singular in nature with no apparent dose-dependent increase (Table 48 and Table 52). The number of participants with abnormal hematology and chemistry laboratory values with CTCAE toxicity grade≥3 were low through the end of the study (Table 43 through Table 46). There was no apparent dose-dependent increase in laboratory abnormality occurrences.

Compound: CC(=O)NCCCC[C@@H]1NC(=O)[C@H](Cc2c[nH]c3c(C)cccc23)NC(=O)[C@H]([C@@H](C)O)NC(=O)[C@H](CC(N)=O)NC(=O)[C@@H](NC(C)=O)C(C)(C)SSC(C)(C)[C@@H](C(=O)N[C@@H](Cc2ccc(OCCN)cc2)C(=O)N[C@@H](Cc2ccc3ccccc3c2)C(=O)NC2(C(=O)N[C@@H](CCC(=O)O)C(=O)N[C@@H](CC(N)=O)C(=O)N[C@@H](Cc3cccnc3)C(=O)N(C)CC(N)=O)CCOCC2)NC1=O [IL-23 receptor antagonist peptide, Ac-[Pen]*-N-T-[W(7-Me)]-[Lys(Ac)]-[Pen]*-Phe[4-(2-aminoethoxy)]-[2-Nal]-[THP]-E-N-[3-Pal]-Sarc-NH2 (*[Pen]-[Pen]* formdisulfidebond)]
- Alanine Aminotransferase (increased): Subjects with Grade 3 (25 mg BID): 0
- Alanine Aminotransferase (increased): Subjects with Grade 4 (25 mg BID): 0
- Albumin (decreased): Subjects with Grade 1 (25 mg BID): 0
- Albumin (decreased): Subjects with Grade 2 (25 mg BID): 0
- Albumin (decreased): Subjects with Grade 3 (25 mg BID): 0
- Albumin (decreased): Subjects with Grade 4 (25 mg BID): 0
- Albumin (decreased): Subjects with postbaseline maximum toxicity grade >0 (25 mg BID): 0
- Alkaline Phosphatase (increased): Subjects with Grade 2 (25 mg BID): 0
- Alkaline Phosphatase (increased): Subjects with Grade 3 (25 mg BID): 0
- Alkaline Phosphatase (increased): Subjects with Grade 4 (25 mg BID): 0
- Aspartate Aminotransferase (increased): Subjects with Grade 3 (25 mg BID): 0
- Aspartate Aminotransferase (increased): Subjects with Grade 4 (25 mg BID): 0
- Calcium corrected (decreased): Subjects with Grade 2 (25 mg BID): 0
- Calcium corrected (decreased): Subjects with Grade 3 (25 mg BID): 0
- Calcium corrected (decreased): Subjects with Grade 4 (25 mg BID): 0
- Calcium corrected (increased): Subjects with Grade 1 (25 mg BID): 0
- Calcium corrected (increased): Subjects with Grade 2 (25 mg BID): 0
- Calcium corrected (increased): Subjects with Grade 3 (25 mg BID): 0
- Calcium corrected (increased): Subjects with Grade 4 (25 mg BID): 0
- Calcium corrected (increased): Subjects with postbaseline maximum toxicity grade >0 (25 mg BID): 0
- Cholesterol (increased): Subjects with Grade 2 (25 mg BID): 0
- Cholesterol (increased): Subjects with Grade 3 (25 mg BID): 0
- Cholesterol (increased): Subjects with Grade 4 (25 mg BID): 0
- Creatinine (increased): Subjects with Grade 1 (25 mg BID): 0
- Creatinine (increased): Subjects with Grade 2 (25 mg BID): 0
- Creatinine (increased): Subjects with Grade 3 (25 mg BID): 0
- Creatinine (increased): Subjects with Grade 4 (25 mg BID): 0
- Creatinine (increased): Subjects with postbaseline maximum toxicity grade >0 (25 mg BID): 0
- Gamma Glutamyl Transferase (increased): Subjects with Grade 2 (25 mg BID): 0
- Gamma Glutamyl Transferase (increased): Subjects with Grade 3 (25 mg BID): 0
- Gamma Glutamyl Transferase (increased): Subjects with Grade 4 (25 mg BID): 0
- Glucose (decreased): Subjects with Grade 2 (25 mg BID): 0
- Glucose (decreased): Subjects with Grade 3 (25 mg BID): 0
- Glucose (decreased): Subjects with Grade 4 (25 mg BID): 0
- Hemoglobin (g/L) (decreased): subjects with Grade 1 (25 mg BID): 0
- Hemoglobin (g/L) (decreased): subjects with Grade 2 (25 mg BID): 0
- Hemoglobin (g/L) (decreased): subjects with Grade 3 (25 mg BID): 0
- Hemoglobin (g/L) (decreased): subjects with Grade 4 (25 mg BID): 0
- Hemoglobin (g/L) (decreased): subjects with postbaseline maximum toxicity grade >0 (25 mg BID): 0
- Hemoglobin (g/L) (increased): subjects with Grade 2 (25 mg BID): 0
- Hemoglobin (g/L) (increased): subjects with Grade 3 (25 mg BID): 0
- Hemoglobin (g/L) (increased): subjects with Grade 4 (25 mg BID): 0
- Lymphocytes (×10^9/L) (decreased): subjects with Grade 3 (25 mg BID): 0
- Lymphocytes (×10^9/L) (decreased): subjects with Grade 4 (25 mg BID): 0
- Lymphocytes (×10^9/L) (increased): subjects with Grade 1 (25 mg BID): 0
- Lymphocytes (×10^9/L) (increased): subjects with Grade 3 (25 mg BID): 0
- Lymphocytes (×10^9/L) (increased): subjects with Grade 4 (25 mg BID): 0
- Magnesium (decreased): Subjects with Grade 1 (25 mg BID): 0
- Magnesium (decreased): Subjects with Grade 2 (25 mg BID): 0
- Magnesium (decreased): Subjects with Grade 3 (25 mg BID): 0
- Magnesium (decreased): Subjects with Grade 4 (25 mg BID): 0
- Magnesium (decreased): Subjects with postbaseline maximum toxicity grade >0 (25 mg BID): 0
- Magnesium (increased): Subjects with Grade 2 (25 mg BID): 0
- Magnesium (increased): Subjects with Grade 3 (25 mg BID): 0
- Magnesium (increased): Subjects with Grade 4 (25 mg BID): 0
- Neutrophils (×10^9/L) (decreased): subjects with Grade 3 (25 mg BID): 0
- Neutrophils (×10^9/L) (decreased): subjects with Grade 4 (25 mg BID): 0
- Platelets (×10^9/L) (decreased): subjects with Grade 2 (25 mg BID): 0
- Platelets (×10^9/L) (decreased): subjects with Grade 3 (25 mg BID): 0
- Platelets (×10^9/L) (decreased): subjects with Grade 4 (25 mg BID): 0
- Potassium (decreased): Subjects with Grade 1 (25 mg BID): 0
- Potassium (decreased): Subjects with Grade 2 (25 mg BID): 0
- Potassium (decreased): Subjects with Grade 3 (25 mg BID): 0
- Potassium (decreased): Subjects with Grade 4 (25 mg BID): 0
- Potassium (decreased): Subjects with postbaseline maximum toxicity grade >0 (25 mg BID): 0
- Potassium (increased): Subjects with Grade 2 (25 mg BID): 0
- Potassium (increased): Subjects with Grade 3 (25 mg BID): 0
- Potassium (increased): Subjects with Grade 4 (25 mg BID): 0
- Sodium (decreased): Subjects with Grade 1 (25 mg BID): 0
- Sodium (decreased): Subjects with Grade 2 (25 mg BID): 0
- Sodium (decreased): Subjects with Grade 3 (25 mg BID): 0
- Sodium (decreased): Subjects with Grade 4 (25 mg BID): 0
- Sodium (decreased): Subjects with postbaseline maximum toxicity grade >0 (25 mg BID): 0
- Sodium (increased): Subjects with Grade 2 (25 mg BID): 0
- Sodium (increased): Subjects with Grade 3 (25 mg BID): 0
- Sodium (increased): Subjects with Grade 4 (25 mg BID): 0
- Total Bilirubin (increased): Subjects with Grade 2 (25 mg BID): 0
- Total Bilirubin (increased): Subjects with Grade 3 (25 mg BID): 0
- Total Bilirubin (increased): Subjects with Grade 4 (25 mg BID): 0
- Triglycerides (increased): Subjects with Grade 3 (25 mg BID): 0
- Triglycerides (increased): Subjects with postbaseline maximum toxicity grade >0 (25 mg BID): 8
- WBC (×10^9/L) (decreased): subjects with Grade 3 (25 mg BID): 0
- WBC (×10^9/L) (decreased): subjects with Grade 4 (25 mg BID): 0
- WBC (×10^9/L) (increased): subjects with Grade 1 (25 mg BID): 0
- WBC (×10^9/L) (increased): subjects with Grade 2 (25 mg BID): 0
- WBC (×10^9/L) (increased): subjects with Grade 3 (25 mg BID): 0
- WBC (×10^9/L) (increased): subjects with Grade 4 (25 mg BID): 0
- WBC (×10^9/L) (increased): subjects with postbaseline maximum toxicity grade >0 (25 mg BID): 0
- Alanine Aminotransferase (increased): Subjects with Grade 1 (25 mg QD): 7
- Alanine Aminotransferase (increased): Subjects with Grade 4 (25 mg QD): 0
- Alanine Aminotransferase (increased): Subjects with postbaseline maximum toxicity grade >0 (25 mg QD): 9
- Albumin (decreased): Subjects with Grade 1 (25 mg QD): 0
- Albumin (decreased): Subjects with Grade 2 (25 mg QD): 0
- Albumin (decreased): Subjects with Grade 3 (25 mg QD): 0
- Albumin (decreased): Subjects with Grade 4 (25 mg QD): 0
- Albumin (decreased): Subjects with postbaseline maximum toxicity grade >0 (25 mg QD): 0
- Alkaline Phosphatase (increased): Subjects with Grade 2 (25 mg QD): 0
- Alkaline Phosphatase (increased): Subjects with Grade 3 (25 mg QD): 0
- Alkaline Phosphatase (increased): Subjects with Grade 4 (25 mg QD): 0
- Aspartate Aminotransferase (increased): Subjects with Grade 1 (25 mg QD): 5
- Aspartate Aminotransferase (increased): Subjects with Grade 3 (25 mg QD): 0
- Aspartate Aminotransferase (increased): Subjects with Grade 4 (25 mg QD): 0
- Calcium corrected (decreased): Subjects with Grade 2 (25 mg QD): 0
- Calcium corrected (decreased): Subjects with Grade 3 (25 mg QD): 0
- Calcium corrected (decreased): Subjects with Grade 4 (25 mg QD): 0
- Calcium corrected (increased): Subjects with Grade 1 (25 mg QD): 0
- Calcium corrected (increased): Subjects with Grade 2 (25 mg QD): 0
- Calcium corrected (increased): Subjects with Grade 3 (25 mg QD): 0
- Calcium corrected (increased): Subjects with Grade 4 (25 mg QD): 0
- Calcium corrected (increased): Subjects with postbaseline maximum toxicity grade >0 (25 mg QD): 0
- Cholesterol (increased): Subjects with Grade 2 (25 mg QD): 0
- Cholesterol (increased): Subjects with Grade 3 (25 mg QD): 0
- Cholesterol (increased): Subjects with Grade 4 (25 mg QD): 0
- Creatinine (increased): Subjects with Grade 2 (25 mg QD): 0
- Creatinine (increased): Subjects with Grade 3 (25 mg QD): 0
- Creatinine (increased): Subjects with Grade 4 (25 mg QD): 0
- Gamma Glutamyl Transferase (increased): Subjects with Grade 1 (25 mg QD): 5
- Gamma Glutamyl Transferase (increased): Subjects with Grade 2 (25 mg QD): 0
- Gamma Glutamyl Transferase (increased): Subjects with Grade 3 (25 mg QD): 0
- Gamma Glutamyl Transferase (increased): Subjects with Grade 4 (25 mg QD): 0
- Gamma Glutamyl Transferase (increased): Subjects with postbaseline maximum toxicity grade >0 (25 mg QD): 5
- Glucose (decreased): Subjects with Grade 2 (25 mg QD): 0
- Glucose (decreased): Subjects with Grade 3 (25 mg QD): 0
- Glucose (decreased): Subjects with Grade 4 (25 mg QD): 0
- Hemoglobin (g/L) (decreased): subjects with Grade 2 (25 mg QD): 0
- Hemoglobin (g/L) (decreased): subjects with Grade 3 (25 mg QD): 0
- Hemoglobin (g/L) (decreased): subjects with Grade 4 (25 mg QD): 0
- Hemoglobin (g/L) (increased): subjects with Grade 2 (25 mg QD): 0
- Hemoglobin (g/L) (increased): subjects with Grade 3 (25 mg QD): 0
- Hemoglobin (g/L) (increased): subjects with Grade 4 (25 mg QD): 0
- Lymphocytes (×10^9/L) (decreased): subjects with Grade 1 (25 mg QD): 0
- Lymphocytes (×10^9/L) (decreased): subjects with Grade 2 (25 mg QD): 0
- Lymphocytes (×10^9/L) (decreased): subjects with Grade 3 (25 mg QD): 0
- Lymphocytes (×10^9/L) (decreased): subjects with Grade 4 (25 mg QD): 0
- Lymphocytes (×10^9/L) (decreased): subjects with postbaseline maximum toxicity grade >0 (25 mg QD): 0
- Lymphocytes (×10^9/L) (increased): subjects with Grade 1 (25 mg QD): 0
- Lymphocytes (×10^9/L) (increased): subjects with Grade 2 (25 mg QD): 0
- Lymphocytes (×10^9/L) (increased): subjects with Grade 3 (25 mg QD): 0
- Lymphocytes (×10^9/L) (increased): subjects with Grade 4 (25 mg QD): 0
- Lymphocytes (×10^9/L) (increased): subjects with postbaseline maximum toxicity grade >0 (25 mg QD): 0
- Magnesium (decreased): Subjects with Grade 1 (25 mg QD): 0
- Magnesium (decreased): Subjects with Grade 2 (25 mg QD): 0
- Magnesium (decreased): Subjects with Grade 3 (25 mg QD): 0
- Magnesium (decreased): Subjects with Grade 4 (25 mg QD): 0
- Magnesium (decreased): Subjects with postbaseline maximum toxicity grade >0 (25 mg QD): 0
- Magnesium (increased): Subjects with Grade 2 (25 mg QD): 0
- Magnesium (increased): Subjects with Grade 3 (25 mg QD): 0
- Magnesium (increased): Subjects with Grade 4 (25 mg QD): 0
- Neutrophils (×10^9/L) (decreased): subjects with Grade 2 (25 mg QD): 0
- Neutrophils (×10^9/L) (decreased): subjects with Grade 3 (25 mg QD): 0
- Neutrophils (×10^9/L) (decreased): subjects with Grade 4 (25 mg QD): 0
